Test results as given in paper doi:10.1101/2025.03.25.645215v1 (biorxiv, 2025).
Values belong to the molecule of their own block, whether it stands above or below them.

Assays:
GAT1 (hGAT1) = GAT1 (hGAT1) (Homo sapiens, UniProt P30531); experiment: 3H-GABA uptake inhibition, HEK293, 384-well; type: cell-based
[1] = molecular target: T1, B^0AT2/SLC6A15 (eGFP-hSLC6A15) (Homo sapiens, UniProt Q9H2J7); experiment: cell-based; parameters: species or system HEK293 eGFP-hSLC6A15
T1 sequence (Q9H2J7 1-730): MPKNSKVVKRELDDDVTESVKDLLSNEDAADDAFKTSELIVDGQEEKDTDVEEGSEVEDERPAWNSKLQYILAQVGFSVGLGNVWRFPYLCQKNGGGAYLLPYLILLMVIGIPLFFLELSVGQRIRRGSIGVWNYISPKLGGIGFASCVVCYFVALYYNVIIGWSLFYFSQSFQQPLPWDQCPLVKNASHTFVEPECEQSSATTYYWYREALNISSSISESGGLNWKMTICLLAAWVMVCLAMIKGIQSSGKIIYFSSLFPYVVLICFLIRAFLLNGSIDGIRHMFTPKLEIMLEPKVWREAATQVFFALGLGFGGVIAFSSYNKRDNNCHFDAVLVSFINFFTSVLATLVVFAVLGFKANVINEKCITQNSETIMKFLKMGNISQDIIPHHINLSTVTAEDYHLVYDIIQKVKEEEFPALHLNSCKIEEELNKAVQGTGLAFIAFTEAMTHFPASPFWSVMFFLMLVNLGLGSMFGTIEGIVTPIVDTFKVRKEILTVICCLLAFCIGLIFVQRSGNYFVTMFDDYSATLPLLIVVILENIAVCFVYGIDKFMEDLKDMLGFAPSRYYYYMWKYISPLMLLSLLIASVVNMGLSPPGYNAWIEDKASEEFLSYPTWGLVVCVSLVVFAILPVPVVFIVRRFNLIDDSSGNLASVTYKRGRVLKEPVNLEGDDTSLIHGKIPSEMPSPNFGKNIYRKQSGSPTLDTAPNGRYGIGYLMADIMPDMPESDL

SERT (hSERT) = SERT (hSERT) (Homo sapiens, UniProt P31645); experiment: 3H-5HT uptake inhibition, HEK293, 384-well; type: cell-based
[2] = tested on: NTT4/SLC6A17 (NTT4-B^0AT2 chimera); experiment: 3H-proline uptake inhibition, HEK293, 384-well; type: cell-based; settings: blanket statement for all 1,5-benzodiazepine analogs
DAT (hDAT) = DAT (hDAT) (Homo sapiens, UniProt Q01959); experiment: 3H-dopamine uptake inhibition, HEK293, 384-well; type: cell-based
[3] = molecular target: T1, B^0AT2/SLC6A15 (eGFP-hSLC6A15); experiment: cell-based; parameters: species or system HEK293 eGFP-hSLC6A15; remark: listed apart in the source
[4] = molecular target: T2, B^0AT2/SLC6A15 (AAV mouse SLC6A15 in primary hippocampal neurons) (Mus musculus, UniProt Q8BG16); experiment: 3H-proline uptake inhibition, AAV-transduced primary hippocampal neurons; type: cell-based
T2 sequence (Q8BG16 1-729): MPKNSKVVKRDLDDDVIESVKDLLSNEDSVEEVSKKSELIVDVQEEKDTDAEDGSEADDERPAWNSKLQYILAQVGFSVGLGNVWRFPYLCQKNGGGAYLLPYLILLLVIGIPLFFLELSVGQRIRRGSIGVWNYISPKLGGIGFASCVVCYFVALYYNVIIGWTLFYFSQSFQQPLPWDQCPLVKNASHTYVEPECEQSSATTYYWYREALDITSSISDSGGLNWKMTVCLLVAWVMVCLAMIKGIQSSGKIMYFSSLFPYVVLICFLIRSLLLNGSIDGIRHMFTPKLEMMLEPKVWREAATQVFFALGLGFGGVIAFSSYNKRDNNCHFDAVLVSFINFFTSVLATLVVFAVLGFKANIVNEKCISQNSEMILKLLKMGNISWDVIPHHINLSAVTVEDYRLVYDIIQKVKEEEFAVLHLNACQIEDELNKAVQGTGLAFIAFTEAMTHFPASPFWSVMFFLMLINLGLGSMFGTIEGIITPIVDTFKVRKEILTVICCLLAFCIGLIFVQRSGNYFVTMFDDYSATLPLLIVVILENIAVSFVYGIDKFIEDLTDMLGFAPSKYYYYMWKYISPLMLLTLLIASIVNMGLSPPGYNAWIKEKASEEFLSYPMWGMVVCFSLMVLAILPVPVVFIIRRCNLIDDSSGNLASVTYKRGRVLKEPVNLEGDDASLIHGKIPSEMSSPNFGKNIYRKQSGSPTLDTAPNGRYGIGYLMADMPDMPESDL

[5] = molecular target: T1, B^0AT2/SLC6A15 (eGFP-hSLC6A15); experiment: cell-based; parameters: species or system HEK293 eGFP-hSLC6A15; remark: listed apart in the source
[6] = molecular target: T1, B^0AT2/SLC6A15 (eGFP-hSLC6A15); experiment: inhibition of 3H-proline uptake, HEK293; type: cell-based
[7] = molecular target: T1, B^0AT2/SLC6A15 (eGFP-hSLC6A15); experiment: inhibition of 3H-proline uptake by unlabelled proline, HEK293; type: cell-based
[8] = substrate: O=C(O)[C@@H]1CCCN1; experiment: cells, lysate or membranes; settings: labelled compound, pH 7.4, 120 mM Na+

GAT1 (hGAT1), sequence (P30531 whole entry): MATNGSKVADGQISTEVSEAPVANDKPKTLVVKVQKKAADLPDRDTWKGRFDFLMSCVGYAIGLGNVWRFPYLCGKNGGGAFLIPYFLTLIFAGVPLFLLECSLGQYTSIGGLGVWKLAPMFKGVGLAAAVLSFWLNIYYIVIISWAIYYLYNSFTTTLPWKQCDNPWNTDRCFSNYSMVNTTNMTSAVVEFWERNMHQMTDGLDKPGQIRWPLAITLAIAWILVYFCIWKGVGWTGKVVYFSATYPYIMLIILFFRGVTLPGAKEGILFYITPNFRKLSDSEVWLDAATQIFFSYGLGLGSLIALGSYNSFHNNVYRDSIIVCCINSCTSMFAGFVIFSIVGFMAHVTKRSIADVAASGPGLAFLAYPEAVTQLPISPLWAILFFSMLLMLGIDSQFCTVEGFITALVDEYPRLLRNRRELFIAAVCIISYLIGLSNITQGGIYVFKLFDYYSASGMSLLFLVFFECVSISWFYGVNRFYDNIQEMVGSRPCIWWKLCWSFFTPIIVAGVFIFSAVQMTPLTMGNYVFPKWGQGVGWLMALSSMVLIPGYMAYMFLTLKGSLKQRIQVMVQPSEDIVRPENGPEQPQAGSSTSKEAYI
SERT (hSERT), sequence (P31645 whole entry): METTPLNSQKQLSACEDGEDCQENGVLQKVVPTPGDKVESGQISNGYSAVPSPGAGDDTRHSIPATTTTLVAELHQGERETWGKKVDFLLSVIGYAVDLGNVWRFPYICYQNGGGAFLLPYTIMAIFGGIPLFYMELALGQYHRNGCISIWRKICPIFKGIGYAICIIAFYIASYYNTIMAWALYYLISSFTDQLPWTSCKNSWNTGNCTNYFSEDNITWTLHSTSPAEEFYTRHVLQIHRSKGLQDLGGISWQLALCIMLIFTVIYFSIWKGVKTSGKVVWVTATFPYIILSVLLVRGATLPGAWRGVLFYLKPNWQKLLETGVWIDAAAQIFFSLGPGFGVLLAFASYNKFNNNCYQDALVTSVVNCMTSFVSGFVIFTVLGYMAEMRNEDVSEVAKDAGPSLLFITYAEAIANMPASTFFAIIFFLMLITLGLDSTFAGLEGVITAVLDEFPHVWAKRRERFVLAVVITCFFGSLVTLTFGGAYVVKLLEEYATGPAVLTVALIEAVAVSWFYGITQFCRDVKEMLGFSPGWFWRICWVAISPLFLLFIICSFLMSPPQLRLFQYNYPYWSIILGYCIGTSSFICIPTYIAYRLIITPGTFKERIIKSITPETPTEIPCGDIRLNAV
DAT (hDAT), sequence (Q01959 whole entry): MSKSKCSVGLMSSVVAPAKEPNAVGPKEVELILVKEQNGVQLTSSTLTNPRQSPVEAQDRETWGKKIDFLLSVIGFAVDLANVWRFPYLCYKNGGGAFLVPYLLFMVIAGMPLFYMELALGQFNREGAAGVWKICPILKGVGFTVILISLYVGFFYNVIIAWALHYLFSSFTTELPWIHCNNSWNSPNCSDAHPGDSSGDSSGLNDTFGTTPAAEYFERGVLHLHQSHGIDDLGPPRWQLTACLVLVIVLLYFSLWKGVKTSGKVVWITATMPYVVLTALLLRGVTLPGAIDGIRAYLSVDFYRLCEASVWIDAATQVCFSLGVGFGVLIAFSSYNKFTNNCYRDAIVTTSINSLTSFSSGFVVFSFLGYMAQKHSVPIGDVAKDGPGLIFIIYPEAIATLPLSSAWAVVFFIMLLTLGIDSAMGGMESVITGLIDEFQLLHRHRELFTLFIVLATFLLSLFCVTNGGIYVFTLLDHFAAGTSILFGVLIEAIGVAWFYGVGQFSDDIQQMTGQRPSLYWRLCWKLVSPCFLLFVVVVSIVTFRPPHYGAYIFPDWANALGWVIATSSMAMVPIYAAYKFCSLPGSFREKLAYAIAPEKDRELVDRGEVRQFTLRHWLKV

Molecule: COc1cc(C2C3=C(CCCC3=O)Nc3ccccc3N2C(=O)c2ccccc2)ccc1O (stereo not drawn) [10a]
IC50 (GAT1 (hGAT1)): > 80 µM
IC50 [1]: 0.93 ± 0.08 µM
IC50 (SERT (hSERT)): > 80 µM
IC50 [2]: > 80 µM

Molecule: COc1ccc(C2C3=C(CCCC3=O)Nc3ccccc3N2C(=O)c2ccccc2)cc1 (stereo not drawn) [10c]
IC50 [1]: 0.66 ± 0.07 µM

Molecule: O=C1CCCC2=C1C(c1ccc(Cl)c(Cl)c1)N(C(=O)c1ccccc1)c1ccccc1N2 (stereo not drawn) [10d]
IC50 [1]: 2.5 ± 0.4 µM

Molecule: O=C1CCCC2=C1C(c1ccc(F)cc1)N(C(=O)c1ccccc1)c1ccccc1N2 (stereo not drawn) [10e]
IC50 [1]: 2.9 ± 0.6 µM

Molecule: O=C1CCCC2=C1C(c1ccccc1)N(C(=O)c1ccccc1)c1ccccc1N2 (stereo not drawn) [10f]
IC50 [1]: 1.2 ± 0.2 µM

Molecule: COc1ccc(C2C3=C(CC(C)CC3=O)Nc3ccccc3N2C(=O)c2ccccc2)cc1 (stereo not drawn) [14c]
IC50 (GAT1 (hGAT1)): > 80 µM
IC50 [4]: 1 ± 0.4 µM
IC50 (DAT (hDAT)): > 80 µM
IC50 (SERT (hSERT)): > 80 µM
IC50 [5]: 0.24 ± 0.05 µM
IC50 [2]: > 80 µM

Molecule: CC(C)C[C@H](N)C(=O)O [leucine]
IC50 [6]: 210 ± 30 µM

Molecule: O=C(O)[C@@H]1CCCN1 [proline]
IC50 [7]: 257 ± 53 µM

B1: B^0AT2/SLC6A15 (eGFP-hSLC6A15) (Homo sapiens) (protein)
chain: T1 sequence (Q9H2J7 1-730)
Km [8]: 960 ± 51 µM

Other lines, results leading:

IC50 (GAT1 (hGAT1)): > 80 µM
IC50 (DAT (hDAT)): > 80 µM
IC50 (SERT (hSERT)): > 80 µM
IC50 [3]: 0.8 ± 0.3 µM
IC50 [2]: > 80 µM
Molecule: CC1(C)CC(=O)C2=C(C1)Nc1ccccc1N(C(=O)c1ccccc1)C2c1ccc2c(c1)OCO2 (stereo not drawn) [11x]

IC50 (GAT1 (hGAT1)): > 80 µM
IC50 (DAT (hDAT)): > 80 µM
IC50 (SERT (hSERT)): > 80 µM
IC50 [5]: 0.49 ± 0.03 µM
IC50 [2]: > 80 µM
Molecule: COc1ccc(C2C3=C(CC(c4ccco4)CC3=O)Nc3ccccc3N2C(=O)c2ccccc2)cc1 (stereo not drawn) [14d]
